According to publication PMC6920704, “1-(Piperidin-3-yl)thymine amides as inhibitors of M. tuberculosis thymidylate kinase” (Journal of Enzyme Inhibition and Medicinal Chemistry, 2019):

Target: T1, MtbTMPK (M. tuberculosis thymidylate kinase) (Mycobacterium tuberculosis, UniProt P9WKE1)
T1 construct: gene tmk
Assay: coupled spectrophotometric assay (NADH, […] nm)
Type: biochemical
Settings: 0.5 mM ATP, 0.05 mM dTMP, 2 mM MgCl2, 50 mM KCl, 50 mM Tris-HCl pH 7.4, 30 °C; unreliable (above the highest tested concentration of 0.12 mM)

T1 sequence (P9WKE1 whole entry, looked up): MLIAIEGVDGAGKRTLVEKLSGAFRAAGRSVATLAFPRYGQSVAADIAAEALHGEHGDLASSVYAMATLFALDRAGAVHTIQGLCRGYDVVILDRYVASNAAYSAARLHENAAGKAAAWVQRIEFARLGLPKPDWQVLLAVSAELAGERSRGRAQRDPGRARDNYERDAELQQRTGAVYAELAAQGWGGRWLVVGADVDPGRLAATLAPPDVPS

Structure (SMILES) | IC50MtbTMPK [µM]
Cc1cn(C2CCCN(C(=O)c3cccc(Oc4cc(C(F)(F)F)cc(C(F)(F)F)c4)c3)C2)c(=O)[nH]c1=O (stereo not drawn) [4k] | 158 ± 89

Target: T1, MtbTMPK (M. tuberculosis thymidylate kinase)
Assay: coupled spectrophotometric assay (NADH, […] nm)
Type: biochemical
Settings: read-out: IC50MtbTMPK

Structure (SMILES) | IC50 [µM]
Cc1cn(C2CCCN(C(=O)c3cccc(Oc4ccc([N+](=O)[O-])cc4)c3)C2)c(=O)[nH]c1=O (stereo not drawn) [4e] | 30 ± 3
Cc1cn(C2CCCN(C(=O)c3cccc(Oc4cccc(C(F)(F)F)c4)c3)C2)c(=O)[nH]c1=O (stereo not drawn) [4f] | 53 ± 12
Cc1cn(C2CCCN(C(=O)c3cccc(Oc4cc(F)cc(F)c4)c3)C2)c(=O)[nH]c1=O (stereo not drawn) [4j] | 31 ± 2
Cc1cn(C2CCCN(C(=O)c3cccc(Oc4cccc(N(C)C)c4)c3)C2)c(=O)[nH]c1=O (stereo not drawn) [4a] | 39 ± 3
Cc1cn(C2CCCN(C(=O)c3cccc(Oc4ccc(Cl)c(Cl)c4)c3)C2)c(=O)[nH]c1=O (stereo not drawn) [4g] | 18 ± 1
Cc1cn(C2CCCN(C(=O)c3cccc(Oc4cc(Cl)cc(Cl)c4)c3)C2)c(=O)[nH]c1=O (stereo not drawn) [4i] | 13 ± 1
COc1cccc(Oc2cccc(C(=O)N3CCCC(n4cc(C)c(=O)[nH]c4=O)C3)c2)c1 (stereo not drawn) [4b] | 15 ± 1
Cc1cn(C2CCCN(C(=O)c3cccc(Oc4ccc(F)c(F)c4)c3)C2)c(=O)[nH]c1=O (stereo not drawn) [4h] | 23 ± 1
Cc1cn(C2CCCN(C(=O)c3cccc(Oc4ccc(F)cc4)c3)C2)c(=O)[nH]c1=O (stereo not drawn) [4d] | 18 ± 1
Cc1cn(C2CCCN(C(=O)c3cccc(Oc4ccccc4)c3)C2)c(=O)[nH]c1=O (racemic) [compound 3, 3] | 28 ± 2
Cc1cn(C2CCCN(C(=O)c3cccc(Oc4ccc(Cl)cc4)c3)C2)c(=O)[nH]c1=O (stereo not drawn) [4c] | 39 ± 19
